Laboratory results as given in ChEMBL document CHEMBL4270559, “Structural insight into the optimization of ethyl 5-hydroxybenzo[g]indol-3-carboxylates and their bioisosteric analogues as 5-LO/m-PGES-1 dual inhibitors able to suppress inflammation” (Eur J Med Chem, 2018).

Key:
Prostaglandin E synthase = molecular target: T1, Prostaglandin E synthase (Homo sapiens, UniProt O14684); test: Inhibition of mPGES-1 in microsomal membranes isolated from IL-1beta-stimulated human A549 cells preincubated for 15 mins followed by PGH2 addition measured after 1 mins by RP-HPLC analysis; assay type: cell membranes
T1 sequence (O14684 whole entry): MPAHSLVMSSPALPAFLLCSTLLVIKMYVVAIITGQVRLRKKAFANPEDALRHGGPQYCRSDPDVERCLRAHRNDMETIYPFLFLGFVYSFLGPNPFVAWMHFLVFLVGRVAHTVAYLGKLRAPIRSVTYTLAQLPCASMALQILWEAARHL

[1] = molecular target: T2, Polyunsaturated fatty acid 5-lipoxygenase (Homo sapiens, UniProt P09917); test: Inhibition of 5-LO in human peripheral blood neutrophils using arachidonic acid as substrate preincubated for 15 mins followed by substrate addition measured after 10 mins by RP-HPLC analysis
T2 sequence (P09917 whole entry): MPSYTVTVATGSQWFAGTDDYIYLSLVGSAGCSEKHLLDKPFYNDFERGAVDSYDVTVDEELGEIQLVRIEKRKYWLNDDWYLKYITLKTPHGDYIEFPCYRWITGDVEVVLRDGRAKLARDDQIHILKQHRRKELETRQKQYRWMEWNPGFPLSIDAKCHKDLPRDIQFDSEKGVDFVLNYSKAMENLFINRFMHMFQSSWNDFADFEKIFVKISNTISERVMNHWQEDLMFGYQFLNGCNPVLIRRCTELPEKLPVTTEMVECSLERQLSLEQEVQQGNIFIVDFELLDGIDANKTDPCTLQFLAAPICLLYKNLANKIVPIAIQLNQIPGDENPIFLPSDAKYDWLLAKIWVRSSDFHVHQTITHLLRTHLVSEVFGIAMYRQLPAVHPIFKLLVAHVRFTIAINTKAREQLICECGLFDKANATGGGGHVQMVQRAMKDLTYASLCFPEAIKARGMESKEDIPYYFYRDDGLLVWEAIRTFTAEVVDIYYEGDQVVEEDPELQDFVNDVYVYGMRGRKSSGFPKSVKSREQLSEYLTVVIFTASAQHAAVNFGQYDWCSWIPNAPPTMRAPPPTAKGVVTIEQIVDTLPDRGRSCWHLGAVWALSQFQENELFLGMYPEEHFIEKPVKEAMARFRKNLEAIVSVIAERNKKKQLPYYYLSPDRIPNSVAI

[2] = molecular target: T2, Polyunsaturated fatty acid 5-lipoxygenase; test: Inhibition of recombinant human 5-LO expressed in Escherichia coli BL21 using arachidonic acid as substrate preincubated for 15 mins followed by substrate addition measured after 10 mins by RP-HPLC analysis
[3] = molecular target: T3, Prostaglandin E synthase (Homo sapiens) (UniProt O14684); test: Inhibition of mPGES-1 in microsomal membranes isolated from IL-1beta-stimulated human A549 cells assessed as residual activity preincubated for 15 mins followed by PGH2 addition measured after 1 mins by RP-HPLC analysis relative to control; assay type: cell membranes
T3 sequence (whole entry): T1 sequence (O14684 whole entry)

Mus musculus [4] = test: Anti-inflammatory activity in carrageenan-induced ICR mouse model of inflammation assessed as reduction in paw edema at 4 mg/kg, ip administered 30 mins prior to carrageenan challenge measured at 2 to 6 hrs post carrageenan challenge by plethysmometric method relative to control; assay type: functional; design: scale not given: the % may be the effect or the level left
Mus musculus [5] = test: Anti-inflammatory activity in carrageenan-induced ICR mouse model of inflammation assessed as reduction in paw edema at 4 mg/kg, ip administered 30 mins prior to carrageenan challenge measured at 4 hrs post carrageenan challenge by plethysmometric method relative to control; assay type: functional; design: scale not given: the % may be the effect or the level left
Mus musculus [6] = test: Anti-inflammatory activity in carrageenan-induced ICR mouse model of inflammation assessed as reduction in paw edema at 20 mg/kg, ip administered 30 mins prior to carrageenan challenge measured at 2 to 6 hrs post carrageenan challenge by plethysmometric method relative to control; assay type: functional; design: scale not given: the % may be the effect or the level left

Compound	IC50 (Prostaglandin E synthase)	IC50 [1]	IC50 [2]	Activity [3]	Activity (Mus musculus [4])	Activity (Mus musculus [5])	Activity (Mus musculus [6])
CCOC(=O)c1c(-c2ccc(Cl)cc2)[nH]c2c1cc(O)c1ccccc12	3.4 µM						
CCOC(=O)c1c(-c2cccc(Br)c2)[nH]c2c1cc(O)c1ccccc12	1.19 µM	210 nM	130 nM				
CCOC(=O)c1c(-c2cccc(C)c2)[nH]c2c1cc(O)c1ccccc12	2.56 µM	120 nM	140 nM				
CCOC(=O)c1c(-c2cc(C)cc(C)c2)[nH]c2c1cc(O)c1ccccc12	7.06 µM	300 nM	120 nM				
CCOC(=O)c1c(-c2ccccc2Cl)oc2c1cc(O)c1ccccc12		1860 nM	370 nM				
CCOC(=O)c1c(-c2ccc(Cl)c(Cl)c2)oc2c1cc(O)c1ccccc12		1240 nM	1700 nM				
CCOC(=O)c1c(-c2ccccc2Br)[nH]c2c1cc(O)c1ccccc12	2.54 µM	200 nM	160 nM				
CCOC(=O)c1c(-c2ccc(Br)cc2F)oc2c1cc(O)c1ccccc12		2320 nM	1060 nM				
CCOC(=O)c1c(Cc2c(Cl)cccc2Cl)[nH]c2c1cc(O)c1ccccc12		1160 nM	782 nM	78.1%			
CCOC(=O)c1c(-c2ccccc2C)[nH]c2c1cc(O)c1ccccc12	12.7 µM	420 nM	110 nM				
CCOC(=O)c1c(-c2ccccc2Cl)[nH]c2c1cc(O)c1ccccc12		240 nM	130 nM				
CCOC(=O)c1c(Cc2ccccc2Cl)[nH]c2c1cc(O)c1ccccc12	0.96 µM						
CCOC(=O)c1c(-c2cccc(Br)c2)oc2c1cc(O)c1ccccc12		1640 nM	860 nM				
CCOC(=O)c1c(-c2ccccc2F)oc2c1cc(O)c1ccccc12		670 nM	370 nM				
CCOC(=O)c1c(-c2ccc(Cl)cc2)oc2c1cc(O)c1ccccc12		3740 nM	130 nM				
CCOC(=O)c1c(-c2ccccc2OC)oc2c1cc(O)c1ccccc12		1360 nM	220 nM				
CCOC(=O)c1c(Cc2c(F)cccc2F)[nH]c2c1cc(O)c1ccccc12	4.2 µM	94 nM	169 nM		81%		
CCOC(=O)c1c(-c2ccc(Br)cc2F)[nH]c2c1cc(O)c1ccccc12	3.43 µM	860 nM	270 nM			69.35%	
CCOC(=O)c1c(-c2ccc(Cl)c(Cl)c2)[nH]c2c1cc(O)c1ccccc12	0.48 µM	130 nM	130 nM			47.3%	
CCOC(=O)c1c(-c2cc(Br)ccc2F)[nH]c2c1cc(O)c1ccccc12	2.13 µM	230 nM	110 nM			73.95%	
CCOC(=O)c1c(C)[nH]c2c1cc(O)c1ccccc12		420 nM	480 nM				
CCOC(=O)c1c(-c2cccc(Cl)c2)oc2c1cc(O)c1ccccc12		3920 nM	460 nM				
CCOC(=O)c1c(-c2ccccc2Br)oc2c1cc(O)c1ccccc12		790 nM	160 nM				
CCOC(=O)c1c(-c2ccccc2OC)[nH]c2c1cc(O)c1ccccc12	8.6 µM	210 nM	190 nM				
CC(c1cc2ccccc2s1)N(O)C(N)=O (centres undefined) [ZILEUTON]							38.2%
CCOC(=O)c1c(-c2ccccc2F)[nH]c2c1cc(O)c1ccccc12		150 nM	100 nM	50.6%			
CCOC(=O)c1c(Cc2c(C)cc(C)cc2C)[nH]c2c1cc(O)c1ccccc12	58.8 µM	130 nM	298 nM				
CCOC(=O)c1c(Cc2ccc(Cl)c(Cl)c2)[nH]c2c1cc(O)c1ccccc12	4.2 µM	45 nM	54 nM		73%		
CCOC(=O)c1c(-c2cc(Br)ccc2F)oc2c1cc(O)c1ccccc12		4490 nM	2030 nM				
